Reference: the CheMixHub viscosity set
Values joined by “and” are separate entries in the source; they are usually repeats but may differ in a detail not shown here. Equal values may be shown once.

Columns and labels:
[1] = xn = mol fraction of the nth substance listed; details: 101.33 kPa

BrC(Br)(Br)Br
Details	viscosity [mPa·s]
298.15 K, 101 kPa	3.987

CCCCCCCC[P+](CC)(CC)CC.O=[N+]([O-])c1cn[n-]c1
100 kPa
Details	viscosity [mPa·s]
293.15 K	398
298.15 K	282
303.15 K	207
308.15 K	155
313.15 K	119
318.15 K	94
323.15 K	75

CN(C)CCCO
viscosity [mPa·s]
Details	293.15 K	303.15 K	308.15 K	313.15 K	318.15 K	323.15 K
100 kPa	7.42	5.228	–	4.007	–	3.082
101 kPa	–	4.933	4.22	3.632	3.155	2.765

CCCCCCCCCO
viscosity
Details	298 K	298.15 K	303.15 K	308.15 K	318.15 K	323.15 K
100 kPa	9.587 mPa·s and 7.614 mPa·s	9.566 mPa·s	7.967 mPa·s	6.59 mPa·s and 6.675 mPa·s	4.852 mPa·s and 4.814 mPa·s	4.179 mPa·s and 4.145 mPa·s
101.3 kPa	–	8.965 mPa·s and 9.692 mPa·s	7.375 mPa·s	6.114 mPa·s and 6.494 mPa·s	–	–
101.33 kPa	–	–	7.376 mPa·s	–	–	–

CC1CCCCC1=O (stereo not drawn)
viscosity [mPa·s]
Details	303.15 K	308.15 K	313.15 K
100 kPa	2.225	2.168	2.111
101 kPa	2.225	2.168	–
101.33 kPa	1.406	–	–

C=CCn1cc[n+](C)c1.O=S(=O)([N-]S(=O)(=O)C(F)(F)F)C(F)(F)F
Details	viscosity [mPa·s]
298.15 K, 100 kPa	34.31

NCCNCCO.O=S(=O)([N-]S(=O)(=O)C(F)(F)F)C(F)(F)F.[Li+]
Details	viscosity [mPa·s]
323.15 K, 101 kPa	735.9

CC(O)CN(C)C (stereo not drawn)
101 kPa
Details	viscosity [mPa·s]
303.15 K	1.221
308.15 K	1.097
313.15 K	0.99
318.15 K	0.902
323.15 K	0.825

CC(=O)N(C)C
Details	viscosity
293.15 K, 101.33 kPa	1.02 mPa·s
298 K, 101.33 kPa	0.906 mPa·s
298.15 K, 101.3 kPa	0.917 mPa·s
298.15 K, 101.33 kPa	0.92 mPa·s
298.16 K, 101 kPa	0.927 mPa·s
303.15 K, 101.3 kPa	0.8769 mPa·s
308.15 K, 101.33 kPa	0.823 mPa·s
313.15 K, 100 kPa	0.765 mPa·s
323.15 K, 101 kPa	0.673 mPa·s and 0.69 mPa·s
323.15 K, 101.33 kPa	0.72 mPa·s

Cc1cccc2ccccc12
100 kPa
Details	viscosity
303.15 K	2.58 mPa·s and 2.62 mPa·s and 2.582 mPa·s
323.15 K	1.75 mPa·s and 1.75 mPa·s and 1.748 mPa·s

O=[N+]([O-])c1ccccc1O
viscosity [mPa·s]
Details	313.15 K	323.1 K	323.15 K
101 kPa	2.755	2.68	–
101.33 kPa	–	–	2.31

CCCCCCCC[n+]1ccn(C)c1.F[B-](F)(F)F
101 kPa
Details	viscosity
298.15 K	336.3 mPa·s and 336.3 mPa·s
303.15 K	257.5 mPa·s
308.15 K	193.8 mPa·s
313.15 K	148.8 mPa·s
323.15 K	92.1 mPa·s

CCC1CCCCC1
100 kPa
Details	viscosity
298.15 K	0.797 mPa·s and 0.792 mPa·s and 0.801 mPa·s
303.15 K	0.747 mPa·s and 0.741 mPa·s
308.15 K	0.705 mPa·s and 0.697 mPa·s and 0.701 mPa·s
313.15 K	0.662 mPa·s and 0.65 mPa·s and 0.664 mPa·s
318.15 K	0.627 mPa·s and 0.617 mPa·s
323.15 K	0.585 mPa·s and 0.57 mPa·s and 0.586 mPa·s

O=[N+]([O-])c1ccccc1O + CN1CCC[C@H]1c1cccnc1
viscosity [mPa·s], [1]
Details	308.15 K	323.15 K
x2 = 0.102	–	2.724
x2 = 0.1563	5.072	3.073
x2 = 0.2019	5.996	3.527
x2 = 0.302	7.601	4.122
x2 = 0.3189	7.832	4.24
x2 = 0.3345	8.011	4.344
x2 = 0.3506	8.004	4.389
x2 = 0.3662	7.982	4.388
x2 = 0.4077	7.889	4.362
x2 = 0.5005	7.375	4.12
x2 = 0.603	6.569	3.83
x2 = 0.6988	5.676	3.421
x2 = 0.7988	4.612	2.927
x2 = 0.8937	3.86	2.523
